The Kd is the concentration at which binding is half-saturated.

SMILES strings stand for the structures. Entries after “also recorded” stand apart in the source; their conditions may differ.

Common to all, as to format: binding
The target of experiment [1] is T1, TrkA (Homo sapiens, UniProt P04629). Put plainly: KINOMEscan primary screen against TrkA. Conditions: % of control; for % Ctrl. TrkA @10 nM: 10 nM compound; for % Ctrl. TrkA @100 nM: 100 nM compound. As for the experimental part: (§1) Compounds were initially tested in a primary screen against TrkA (at 10 and 100 nM) and AurA (at 100 nM and 1 μM) using the KINOMEscan technology from DiscoverX Corporation, Fremont, Calif., USA (https://www.discoverx.com/services/drug-discovery-development-services/kinase-profiling/kinomescan).
T1 sequence (P04629 33-796): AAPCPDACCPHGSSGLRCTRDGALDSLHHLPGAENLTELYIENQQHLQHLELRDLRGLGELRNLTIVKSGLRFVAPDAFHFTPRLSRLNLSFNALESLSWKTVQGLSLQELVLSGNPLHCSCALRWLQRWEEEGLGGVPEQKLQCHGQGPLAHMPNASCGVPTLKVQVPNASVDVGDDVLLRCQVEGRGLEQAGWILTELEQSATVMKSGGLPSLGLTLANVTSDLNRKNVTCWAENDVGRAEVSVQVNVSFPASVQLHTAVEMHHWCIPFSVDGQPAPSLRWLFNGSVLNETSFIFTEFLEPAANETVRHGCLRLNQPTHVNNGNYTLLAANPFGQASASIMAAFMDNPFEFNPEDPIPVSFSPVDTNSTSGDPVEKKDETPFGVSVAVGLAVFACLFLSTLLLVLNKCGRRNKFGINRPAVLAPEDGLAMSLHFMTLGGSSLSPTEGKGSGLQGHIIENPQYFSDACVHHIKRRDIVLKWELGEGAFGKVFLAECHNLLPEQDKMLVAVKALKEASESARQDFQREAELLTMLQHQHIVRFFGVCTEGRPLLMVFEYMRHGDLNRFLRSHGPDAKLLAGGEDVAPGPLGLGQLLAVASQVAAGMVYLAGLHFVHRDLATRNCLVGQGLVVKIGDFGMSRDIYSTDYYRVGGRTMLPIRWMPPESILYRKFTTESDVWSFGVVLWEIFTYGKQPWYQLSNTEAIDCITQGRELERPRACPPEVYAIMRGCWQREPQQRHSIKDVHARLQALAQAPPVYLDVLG
Results were reported as % of control (% Ctrl.=(test compound signal−positive control signal)/(DMSO signal−positive control signal). KINOMEscan is an active site-directed competition binding assay that quantitatively measures the ability of a compound to compete with an immobilized, active-site directed ligand.

For experiment [2], the target named is T2, AurA (Homo sapiens, UniProt O14965).
T2 sequence (O14965 1-403): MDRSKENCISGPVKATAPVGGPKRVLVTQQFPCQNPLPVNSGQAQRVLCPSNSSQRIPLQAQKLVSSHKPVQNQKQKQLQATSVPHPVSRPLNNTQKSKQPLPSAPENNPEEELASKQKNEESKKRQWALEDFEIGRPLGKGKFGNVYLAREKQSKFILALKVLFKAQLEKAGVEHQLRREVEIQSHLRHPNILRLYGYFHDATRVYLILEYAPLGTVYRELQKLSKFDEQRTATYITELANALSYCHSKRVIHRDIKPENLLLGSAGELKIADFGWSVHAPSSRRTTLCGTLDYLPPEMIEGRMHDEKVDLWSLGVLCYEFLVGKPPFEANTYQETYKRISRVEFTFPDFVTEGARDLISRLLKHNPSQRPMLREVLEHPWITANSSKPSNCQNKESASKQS
Briefly: KINOMEscan primary screen against AurA. Conditions: % of control; for % Ctrl. AurA @100 nM: 100 nM compound; for % Ctrl. AurA @1 μM: 1 μM compound. As for the experimental part: as §1

For experiment [3], the target named is T1, TrkA. Put plainly: KdELECT Kd measurement (KINOMEscan), TrkA. The conditions noted are these: for Kd: duplicate 11-point dose-response curves. As for the experimental part:
(§2) Kd measurements were done via the KdELECT product service from DiscoverX Corporation (Freemont, Calif., USA) which also employs the KINOMEscan technology. Here, inhibitor binding constants (Kd values) are calculated from duplicate 11-point dose-response curves.

For experiment [4], the target named is TrkA. Put plainly: KdELECT Kd measurement (KINOMEscan), TrkA. Conditions: for ΔpKd: TrkA pKd versus AurA pKd. As for the experimental part: as §2
Experiment [5] has as its target T2, AurA. Put plainly: KdELECT Kd measurement (KINOMEscan), AurA. Conditions: for Kd: duplicate 11-point dose-response curves. As for the experimental part:
as §2

Another experiment concerns panel of 97 kinases. Put plainly: Selectivity profiling, scanEDGE kinase panel (KINOMEscan). The conditions noted are these: 100 nM, cut-off <35% ctrl; for # Hits: N = 92 non-mutant kinases; for Selectivity Score: inhibited kinases/tested kinases. As for the experimental part: Selectivity profiling was done over a panel of 97 kinases at 100 nM concentration (scanEDGE assay panel from Discover X, which also uses the KINOMEscan technology, whereat KIT(D816V) and KIT (V559D, T6701) were replaced by TrkB and TrkC). […] The employed profiling panel consisted of the following kinases: ABL1(T3151)-phosphorylated, ABL1-nonphosphorylated, ABL1-phosphorylated, ACVR1B, ADCK3, AKT1, AKT2, ALK, AURKA, AURKB, AXL, BMPR2, BRAF, BRAF (V600E), BTK, CDK11, CDK2, CDK3, CDK7, CDK9, CHEK1, CSF1R, CSNK1D, CSNK1G2, DCAMKL1, DYRK1B, EGFR, EGFR (L858R), EPHA2, ERBB2, ERBB4, ERK1, FAK, FGFR2, FGFR3, FLT3, GSK3B, IGF1R, IKK-alpha, IKK-beta, INSR, JAK2 (JH1domain-catalytic), JAK3 (JH1domain-catalytic), JNK1, JNK2, JNK3, KIT, LKB1, MAP3K4, MAPKAPK2, MARK3, MEK1, MEK2, MET, MKNK1, MKNK2, MLK1, p38-alpha, p38-beta, PAK1, PAK2, PAK4, PCTK1, PDGFRA, PDGFRB, PDPK1, PIK3C2B, PIK3CA, PIK3CG, PIM1, PIM2, PIM3, PKAC-alpha, PLK1, PLK3, PLK4, PRKCE, RAF1, RET, RIOK2, ROCK2, RSK2 (Kin. Dom. 1-N-terminal), SNARK, SRC, SRPK3, TGFBR1, TIE2, TRKA, TRKB, TRKC, TSSK1B, TYK2 (JH1domain-catalytic), ULK2, VEGFR2, YANK3, ZAP70

Consider `Cc1ccc(CSc2nc(Nc3cc(C)[nH]n3)cc(N3CCN(C)CC3)n2)cc1` [b8, N-(5-methyl-1H-pyrazol-3-yl)-2-{[(4-methylphenyl)methyl]sulfanyl}-6-(4-methylpiperazin-1-yl)pyrimidin-4-amine], for which, at TrkA [1], the “% Ctrl. TrkA @10 nM” value stood at 35 % Ctrl and the “% Ctrl. TrkA @100 nM” value is 5.3 % Ctrl. In addition, on AurA [2], the “% Ctrl. AurA @100 nM” value is recorded as 30 % Ctrl and the “% Ctrl. AurA @1 μM” value turned out to be 1.3 % Ctrl. Moreover, at TrkA [3], the “TrkA [pKd]” value is listed as 8.4 and the Kd turned out to be 3.8 nM. The molecule further came in with a ΔpKd on TrkA [4] of 1.1. Moreover, on AurA [5], the “AurA [pKd]” value was found to be 7.3 and the dissociation constant Kd is 53 nM. Further, in the experiment with panel of 97 kinases, the “# Hits” value worked out at 17; the “List of inhibited kinases” value was “TrkA, TrkB, TrkC, ABL1, AurA, and AXL, BTK, FGFR3, FLT3, JAK2, and JAK3, KDR, KIT, PLK4, RET, SRC, and TYK2”; the “Selectivity Score” value is recorded as 0.185.
Take `Cc1cccc(Sc2nc(Nc3cc(C)[nH]n3)cc(N3CCN(C)CC3)n2)c1` [b4, N-(5-methyl-1H-pyrazol-3-yl)-2-[(3-methylphenyl)sulfanyl]-6-(4-methylpiperazin-1-yl)pyrimidin-4-amine]: on TrkA [1], the “% Ctrl. TrkA @10 nM” value is 50 % Ctrl and the “% Ctrl. TrkA @100 nM” value was found to be 6.7 % Ctrl. Besides, at AurA [2], the “% Ctrl. AurA @100 nM” value amounted to 2.6 % Ctrl and the “% Ctrl. AurA @1 μM” value was 0.1 % Ctrl.
Regarding `Cc1cc(Nc2cc(N3CCN(C)CC3)nc(Sc3ccccc3)n2)n[nH]1` [Reference 2, N-(5-methyl-1H-pyrazol-3-yl)-6-(4-methylpiperazin-1-yl)-2-(phenylsulfanyl)-pyrimidin-4-amine, reference compound], on TrkA [1], the “% Ctrl. TrkA @10 nM” value was determined as 58 % Ctrl and the “% Ctrl. TrkA @100 nM” value was 10 % Ctrl. Besides, at AurA [2], the “% Ctrl. AurA @100 nM” value is listed as 15 % Ctrl and the “% Ctrl. AurA @1 μM” value is 0.95 % Ctrl. Further, at TrkA [3], the “TrkA [pKd]” value is 7.5 and the affinity, expressed as Kd, was 30 nM. This molecule also came in with a ΔpKd at TrkA [4] of 0.1. Further, the “ΔΔpKd (selectivity towards AurA compared to tozasertib)” value with TrkA [4] (compared to tozasertib) stood at 1. For the same molecule, at AurA [5], the “AurA [pKd]” value stood at 7.4 and the dissociation constant Kd was determined as 41 nM.
Consider `Cc1cc(Nc2cc(N3CCN(C)CC3)nc(SCc3cccc4ccccc34)n2)n[nH]1` [b6, N-(5-methyl-1H-pyrazol-3-yl)-6-(4-methylpiperazin-1-yl)-2-[(naphthalen-1-ylmethyl)sulfanyl]pyrimidin-4-amine], for which, on TrkA [1], the “% Ctrl. TrkA @10 nM” value is 74 % Ctrl and the “% Ctrl. TrkA @100 nM” value stood at 35 % Ctrl. On AurA [2], the “% Ctrl. AurA @100 nM” value was determined as 63 % Ctrl and the “% Ctrl. AurA @1 μM” value came out at 7.4 % Ctrl.
The corresponding values for `Cc1ccc(C)c(CSc2nc(Nc3cc(C)[nH]n3)cc(N3CCN(C)CC3)n2)c1` [b2, 2-{[(2,5-dimethylphenyl)methyl]sulfanyl}-N-(5-methyl-1H-pyrazol-3-yl)-6-(4-methylpiperazin-1-yl)pyrimidin-4-amine] are 93 % Ctrl, 31 % Ctrl, 54 % Ctrl and 9.4 % Ctrl.
The corresponding values for `CN1CCN(c2cc(Nc3cc4ccccn4n3)nc(Sc3ccccc3)n2)CC1` [a3, 6-(4-methylpiperazin-1-yl)-2-(phenylsulfanyl)-N-(pyrazolo[1,5-a]pyridin-2-yl)pyrimidin-4-amine] are 93 % Ctrl, 29 % Ctrl, 87 % Ctrl and 76 % Ctrl.
The corresponding values for `Cc1cc(Nc2cc(N3CCN(C)CC3)nc(SCc3ccc(C)c(C)c3)n2)n[nH]1` [b3, 2-{[(3,4-dimethylphenyl)methyl]sulfanyl}-N-(5-methyl-1H-pyrazol-3-yl)-6-(4-methylpiperazin-1-yl)pyrimidin-4-amine] are 53 % Ctrl, 11 % Ctrl, 46 % Ctrl and 4.5 % Ctrl.
For `CN1CCN(c2cc(Nc3cc(C(C)(C)C)[nH]n3)nc(Sc3ccccc3)n2)CC1` [a8, N-(5-tert-butyl-1H-pyrazol-3-yl)-6-(4-methylpiperazin-1-yl)-2-(phenylsulfanyl) pyrimidin-4-amine], at TrkA [1], the “% Ctrl. TrkA @10 nM” value is given as 69 % Ctrl and the “% Ctrl. TrkA @100 nM” value was determined as 18 % Ctrl. At AurA [2], the “% Ctrl. AurA @100 nM” value was 100 % Ctrl and the “% Ctrl. AurA @1 μM” value is 79 % Ctrl.
Consider `Cc1ccc(C)c(Sc2nc(Nc3cc(C)[nH]n3)cc(N3CCN(C)CC3)n2)c1` [b1, 2-[(2,5-dimethylphenyl)sulfanyl]-N-(5-methyl-1H-pyrazol-3-yl)-6-(4-methylpiperazin-1-yl)pyrimidin-4-amine], for which, on TrkA [1], the “% Ctrl. TrkA @10 nM” value was found to be 80 % Ctrl and the “% Ctrl. TrkA @100 nM” value worked out at 11 % Ctrl. For the same molecule, on AurA [2], the “% Ctrl. AurA @100 nM” value is given as 7.3 % Ctrl and the “% Ctrl. AurA @1 μM” value is reported as 0.5 % Ctrl.
`Cc1ccc(Sc2nc(Nc3cc(C)[nH]n3)cc(N3CCN(C)CC3)n2)c(C)c1` [b9, 2-[(2,4-dimethylphenyl)sulfanyl]-N-(5-methyl-1H-pyrazol-3-yl)-6-(4-methylpiperazin-1-yl)pyrimidin-4-amine]: on TrkA [1], the “% Ctrl. TrkA @10 nM” value is recorded as 77 % Ctrl and the “% Ctrl. TrkA @100 nM” value is given as 24 % Ctrl. For the same molecule, on AurA [2], the “% Ctrl. AurA @100 nM” value is given as 51 % Ctrl and the “% Ctrl. AurA @1 μM” value came to 3.8 % Ctrl.
With `Cc1cc(Nc2cc(N3CCN(C)CC3)nc(Sc3ccc(NC(=O)C4CC4)cc3)n2)n[nH]1` [Tozasertib, N-[4-({4-[(5-methyl-1H-pyrazol-3-yl)amino]-6-(4-methylpiperazin-1-yl)pyrimidin-2-yl}sulfanyl)phenyl]cyclopropanecarboxamide, reference compound], on TrkA [1], the “% Ctrl. TrkA @10 nM” value turned out to be 31 % Ctrl and the “% Ctrl. TrkA @100 nM” value came out at 5.2 % Ctrl. In the experiment on panel of 97 kinases, the “# Hits” value was 10 and the “List of inhibited kinases” value is reported as “TrkA, ABL1, AurA, AurB, AXL,; also recorded: CK1d, FLT3, JAK2, PLK4, RET”.
`Cc1cc(Nc2cc(N3CCN(C)CC3)nc(Sc3cccc(C(F)(F)F)c3)n2)n[nH]1` [b5, N-(5-methyl-1H-pyrazol-3-yl)-6-(4-methylpiperazin-1-yl)-2-{[3-(trifluoromethyl)phenyl]sulfanyl}pyrimidin-4-amine]: at TrkA [1], the “% Ctrl. TrkA @10 nM” value turned out to be 90 % Ctrl and the “% Ctrl. TrkA @100 nM” value was 32 % Ctrl. At AurA [2], the “% Ctrl. AurA @100 nM” value came to 36 % Ctrl and the “% Ctrl. AurA @1 μM” value came to 2.4 % Ctrl.
`CN1CCN(c2cc(Nc3cc(C4CCCC4)[nH]n3)nc(Sc3ccccc3)n2)CC1` [a4, N-(5-cyclopentyl-1H-pyrazol-3-yl)-6-(4-methylpiperazin-1-yl)-2-(phenylsulfanyl)pyrimidin-4-amine]: on TrkA [1], the “% Ctrl. TrkA @10 nM” value amounted to 15 % Ctrl and the “% Ctrl. TrkA @100 nM” value amounted to 0.95 % Ctrl. At AurA [2], the “% Ctrl. AurA @100 nM” value was determined as 49 % Ctrl and the “% Ctrl. AurA @1 μM” value worked out at 4.5 % Ctrl. Besides, at TrkA [3], the “TrkA [pKd]” value was found to be 8.8 and the affinity, expressed as Kd, was 1.5 nM. The ΔpKd at TrkA [4] was found to be 1.8. On AurA [5], the “AurA [pKd]” value is reported as 7.0 and the Kd turned out to be 93 nM. Also, in the experiment with panel of 97 kinases, the “# Hits” value was 19; the “List of inhibited kinases” value is listed as “TrkA, TrkB, TrkC, ABL1, AurA,; also recorded: AXL, FGFR2, FGFR3, FLT3, FMS,; also recorded: INSR, JAK2, JAK3, KIT, MAP2K2,; also recorded: MET, PDGFRb, RET, SRC”; the “Selectivity Score” value turned out to be 0.207.

(Values after patent US20200399250A1, “Pyrimidine Derivatives as Tropomyosin Receptor Kinase A (TRKA) Inhibitors” (BIOMED X GMBH, priority 2017, published 2020).)
